In one assay the test system is myosin heavy chain (MHC). The assay is described as follows: Myosin heavy chain (MHC) expression. Type of assay: in vivo, mouse. The method, then:
In addition to its effects on the fiber type, exercise training increased skeletal muscle mitochondrial biogenesis, which can be measured as a function of mitochondrial DNA expression levels using quantitative real time PCR (QPCR). Mitochondrial DNA expression levels were determined in muscles of V, GW, Tr, and GW+Tr subjects using quantitative real time PCR. […] Such an increase is known to contribute to enhanced endurance capacity (e.g., Holloszy, Med. Sci. Sports 7:155-64, 1975). Slow-twitch and fast-twitch muscle fiber types also can be distinguished by myosin isoform expression (Gauthier and Lowey, J. Cell Biol. 81:10-25, 1979; Fitzsimons and Hoh, Biochem. J. 193:229-33, 1981). […] Therefore, at least at the transcriptional level, the PPARδ agonist was capable of inducing some proteins characteristic of a slow-twitch muscle fiber phenotype.

A short description of assay [1]: Exercise effect in healthy adult human subjects (Example 9). The following applies: 1 to 20 mg per day oral with aerobic exercise. The assay is classed as in vivo. The method, then: Healthy adult human subjects perform aerobic exercise (e.g., running) for at least 30 minutes (e.g., 30-90 minutes) for at least 3-4 days per week (e.g., 3-7 days per week) for at least 2 weeks (e.g., at least 4-12 weeks). The exercise is performed at 40%-50% maximal heart rate, […] maximal heart rate, 60%-70% maximal heart rate, or 75%-80% maximal heart rate, where maximum heart rate for a human subject is calculated as: 220 bps−(age of the subject). […] Subjects can continue to perform aerobic exercise while receiving GW1516. […] The exercise effect achieved in the treated subjects (e.g., running endurance) can be compared to such an effect in untreated subjects. Exercise effect can be measured using methods known in the art, such as measuring aerobic or running endurance (for example measuring distance run until exhaustion or amount of time to run a particular distance). In some instances, the exercise effect of interest is increased in treated subjects by at least 5%, such as at least 10% as compared to untreated subjects.

Assay [2] can be described thus: Muscle triglyceride (mTG) content. Type of assay: in vivo, mouse. On the procedure:
Altered triglycerides can be used to access changes in muscle oxidative capacity. Muscle triglyceride (mTG) content was measured as previously described (Wang et al., PLoC Biol, 2:e294, 2004) using a kit from Thermo Electron Corporation. […] Gene and/or protein expression that is induced by a combination of exercise and drug treatment (e.g., PPARδ agonist administration) but not by either input alone is believed to be a new discovery. This type of response can be used to further characterize the intersection of pharmacologic and physiologic genetic networks. For example, one or more genes and/or proteins uniquely regulated by one or more drugs {e.g., PPARδ agonists) and exercise can be used as markers, for instance, of illicitly boosting performance in professional and/or amateur athletes.

The subject of the next assay is AMPK. The assay is described as follows: Western blot of phospho-AMPK in quadriceps. Type of assay: in vivo, mouse. The note with it: sedentary or trained muscles. An excerpt:
Exercise training is known to activate kinases, such as p44/42 MAPK and AMPK, which regulate gene expression in skeletal muscle (Chen et al., Diabetes, 52:2205-12, 2003; Goodyear et al., Am. J. Physiol, 271:[…]-8, 1996). AMPK affects skeletal muscle gene expression and oxidative metabolism (Chen et al., Diabetes. 52: 2205-12, 2003, Reznick et al., J. Physiol. 574: 33-9, 2006). The interaction between exercise-regulated kinases and PPARδ signaling is described in this Example. The levels of phospho-p44/42 MAPK and phospho-AMPK a subunit and total AMPK were determined in protein homogenates of quadriceps muscle by Western blot. Antibodies specific for phospho-p44/42 MAPK, phospho- and total-AMPK αl antibodies were obtained from Cell Signaling. The phospho-specific AMPK αl antibody recognizes the key activating threonine in the activation loop.
(Immunoblotting shows a protein as a band on a membrane.)

Another assay concerns epididymal white adipose. The assay is described as follows: Epididymal fat to body weight ratio and H&E staining of white adipose. The assay is classed as in vivo, mouse. The following applies: GW1516 in combination with exercise. The method, then: Hematoxylin and eosin (H&E) staining of white adipose tissue paraffin sections was performed as previously described (Wang et al., PLoS Biol., 2:e294, 2004; Wang et al., Cell, 113:159-70, 2003).

In assay [3] the test system is myoglobin, UCP3, cytochrome c (CYCS) and SCDl. The assay is described as follows: Western blotting of oxidative biomarkers in quadriceps. The assay is classed as in vivo, mouse. The following applies: combined exercise and GW1516 vs either alone. On the procedure:
In addition to gene expression, protein expression was determined for selective oxidative biomarkers including myoglobin, UCP3, cytochrome c (CYCS) and SCDl, using Western blotting. Protein homogenates were prepared from quadriceps muscle, separated by SDS polyacrylamide gel electrophoresis, transferred to blotting membrane and probed with antibodies specific for myoglobin (Dako), UCP3 (Affinity Bioreagents), cytochrome c (Santacruz) SCDl (Santacruz), and, as a loading control, tubulin (Sigma).

The next assay deals with primary muscle cells. The assay is described as follows: Gene expression in wild type and PPARδ null primary muscle cells. The note with it: wild type vs PPARδ null cells. Type of assay: cell-based, mouse.
Assay [4] concerns type I (slow oxidative) muscle fibers. Briefly: Meta-chromatic staining of gastrocnemius fiber types. The assay is classed as in vivo, mouse. An excerpt: In this assay, muscle fibers with high ATPase activity {e.g., type I (slow oxidative) muscle fibers) are darkly stained.

Method for primary muscle cells: Primary muscle cells were isolated from wild type and PPARδ null mice as previously described (Rando and Blau, J. Cell. Biol. 125(6): 1275-87, 1994). […] RNA expression of UCP3, PDK4, LPL, and HSL was determined using real time quantitative PCR as described in Example 1.
To test this possibility, wild-type and PPARδ null primary muscle cells were used.

Consider `Cc1cc(SCc2sc(-c3ccc(C(F)(F)F)cc3)nc2C)ccc1OCC(=O)O` [GW1516, (2-methyl-4(((4-methyl-2-(4-trifluoromethylphenyl)-1,3-thiazol-5-yl)methyl)sulfanyl)phenoxy)acetic acid], for which the “MHC I and MHC lib expression” value with myosin heavy chain (MHC) (GW1516 combined with exercise) is “did not induce additional changes”. Also, the “expression of MHC Ha” value in the assay with myosin heavy chain (MHC) (sedentary mice) is “did not alter”. Also, in the assay with myosin heavy chain (MHC) (sedentary mice vs vehicle), the “expression of MHC I” value is reported as “increased” and the “expression of MHC lib” value is “decreased”. Further, in assay [1], the “increase of exercise effect vs untreated subjects” value is “at least 5%”. Besides, the “exercise-induced increase in muscle triglycerides” value in assay [2] (GW1516-treated exercise trained mice) is given as “completely reversed”. The “mTG content vs vehicle” value in assay [2] (sedentary mice) is given as “comparable”. In the assay on AMPK, the “activation of AMPK” value is “failed to activate”. For the same compound, the “cross-sectional area of the adipocytes” value in the assay on epididymal white adipose was “decreased”. The “myoglobin, UCP3, cytochrome c, and SCDl protein expression” value in assay [3] is listed as “robust up regulation”. Besides, the “induction of oxidative genes (UCP3, mCPT I, PDK4)” value in the assay with primary muscle cells is listed as “mediated via activation of PPARδ”. Further, in assay [4] (GW1516 treatment and exercise training), the “number of type I muscle fibers in exercised muscle” value is given as “significantly increased”. Also, in assay [4] (sedentary mice, gastrocnemius), the “proportion of type I muscle fibers vs vehicle” value is recorded as “no significant difference”. In addition, the increase in proportion of type I fibers vs vehicle-treated sedentary mice in assay [4] (trained mice) came out at 38%.

(Values after patent US9192601B2, “Methods for enhancing muscle performance and tone” (Salk Institute for Biological Studies, priority 2006, dated 2015).)
